Values of other authors, collected in patent publication US20260041939A1, “METHODS FOR THE TREATMENT OF HY[…] TRANSCRANIAL-FOCUSED-ULTRASOUND” (SUNNYBROOK RESEARCH INSTITUTE, priority 2022, published 2026).

Tested on: c-FOS expression
Settings: microinjection into the tuberomammillary nucleus of rats

CCCC(C)C1(CC)C(=O)NC(=O)NC1=O (stereo not drawn) [Pentobarbital, pentobarbital]
c-FOS expression in the locus coeruleus: unchanged | c-FOS expression in the tuberomammillary nucleus: suppress | c-FOS expression in the ventrolateral preoptic nucleus (VLPO): increase
